# Results from patent US20060069132A1, “Azolecarboxamide herbicides” (priority 2004, published 2006).
# Where two headings read alike, the source gives them in different places.
# Experiments:
# lambsquarters = assay: Test B pre-/postemergence herbicide test; assay type: in vivo, Chenopodium album; conditions: for pest or weed control at 500 g/ha: 500 g ai/ha
# In short: (§1)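 Test chemicals in a non-phytotoxic solvent mixture with surfactant were applied preemergence to seeded species and postemergence to plants 2-18 cm tall (1- to 4-leaf stage); rice and barnyardgrass were also tested in a flooded paddy at the 2-leaf stage. Visual rating versus controls after 13-15 days in greenhouse, scale 0 (no effect) to 100 (complete control).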
# ducksalad = assay: Test B flooded paddy test; assay type: in vivo, Heteranthera limosa; conditions: Heteranthera limosa, 336 h, 1000 g ai/ha, scale 0 to 100 (0 no effect, 100 complete control), read-out: Ducksalad plant response rating
# In short: (§2)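 After treating 2-leaf paddy plants or 2–18 cm postemergence plants (1 to 4 leaves) with formulated chemical, researchers kept them in a greenhouse for 13–15 days. Effects were judged visually versus controls: 0 indicates none, 100 total control.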
# velvetleaf = assay: Test B pre-/postemergence herbicide test; assay type: in vivo, Abutilon theophrasti
# In short: as §1
# Surinam grass = assay: Test B pre-/postemergence herbicide test; assay type: in vivo, Urochloa decumbens; conditions: for pest or weed control at 500 g/ha: 500 g ai/ha
# In short: as §1
# large crabgrass = assay: Test B pre-/postemergence herbicide test; assay type: in vivo, Digitaria sanguinalis; conditions: for pest or weed control at 500 g/ha: 500 g ai/ha
# In short: as §1
# pigweed = assay: Test B pre-/postemergence herbicide test; assay type: in vivo, Amaranthus retroflexus; conditions: for pest or weed control at 500 g/ha: 500 g ai/ha
# In short: as §1
# cocklebur = assay: Test B pre-/postemergence herbicide test; assay type: in vivo, Xanthium strumarium; conditions: for pest or weed control at 500 g/ha: 500 g ai/ha
# In short: (§3)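 Flooded paddy rice and barnyardgrass were treated at the 2-leaf stage; upland plantings received compound either on sown seed or on 1- to 4-leaf seedlings. All were kept 13–15 days in a greenhouse and scored visually, 0–100, relative to untreated plants.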
# wild oat = assay: Test B postemergence herbicide test; assay type: in vivo, Avena fatua; conditions: Avena fatua, post-emergence, 336 h, read-out: Oat, Wild plant response rating
# In short: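 Formulated test chemicals went onto postemergence plants measuring 2 to 18 cm, at one to four leaves. For the paddy assay, species had reached two leaves. Scoring took place 13–15 days later by eye, relative to untreated plants, using 0 for no effect up to 100 for full control.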
# barnyardgrass = assay: Test B pre-/postemergence herbicide test; assay type: in vivo, Echinochloa crus-galli; conditions: for pest or weed control at 500 g/ha: 500 g ai/ha
# In short: as §3
# corn = assay: Test B pre-/postemergence herbicide test; assay type: in vivo, Zea mays
# In short: as §1
# morningglory = assay: Test B pre-/postemergence herbicide test; assay type: in vivo, Ipomoea coccinea; conditions: for pest or weed control at 500 g/ha: 500 g ai/ha
# In short: as §3
# [1] = test system: small flower umbrella sedge; assay: Test B flooded paddy test; assay type: in vivo, Cyperus difformis; conditions: Cyperus difformis, 336 h, 1000 g ai/ha, scale 0 to 100 (0 no effect, 100 complete control), read-out: Sedge, Umbrella plant response rating
# In short: as §2
# rice = assay: Test B flooded paddy test; assay type: in vivo, Oryza sativa; conditions: Oryza sativa, 336 h, 1000 g ai/ha, scale 0 to 100 (0 no effect, 100 complete control), read-out: Rice plant response rating
# In short: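 Paddy species grown to the 2-leaf stage under flooding; blackgrass sprayed postemergence at 2–18 cm (1- to 4-leaf stage). Plants kept in a greenhouse for 13 to 15 days, then visually rated against controls on 0 (no effect) to 100 (complete control).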
# blackgrass = assay: Test B postemergence herbicide test; assay type: in vivo, Alopecurus myosuroides; conditions: Alopecurus myosuroides, post-emergence, 336 h, read-out: Blackgrass plant response rating
# In short: as §2
# giant foxtail = assay: Test B pre-/postemergence herbicide test; assay type: in vivo, Setaria faberi; conditions: for pest or weed control at 500 g/ha: 500 g ai/ha
# In short: as §1
# [2] = 125 g ai/ha, 0 is no effect, 100 is complete control, preemergence
# [3] = 125 g ai/ha, visual rating, scale 0 (no effect) to 100 (complete control)
# [4] = postemergence, 500 g ai/ha, scale 0 to 100, 0 is no effect, 100 is complete control
structure (smiles),measurement,setting,value
"CCOC(=O)c1cccc(NC(=O)c2nn(C(C)(C)C)nc2CC)c1 [Compound 360, ethyl 3-[[[2-(1,1-dimethylethyl)-5-ethyl-2H-1,2,3-triazol-4-yl]carbonyl]amino]benzoate]","Plant response rating (0 to 100 scale), Lambsquarters",lambsquarters; [2],0
same,pest or weed control at 125 g/ha,"lambsquarters; Chenopodium album, post-emergence, 336 h, 125 g ai/ha, visual rating, scale 0 (no effect) to 100 (complete control), read-out: Lambsquarters plant response rating",0%
same,pest or weed control at 500 g/ha,"lambsquarters; Chenopodium album, post-emergence, 336 h, postemergence, scale 0 to 100, 0 is no effect, 100 is complete control, read-out: Lambsquarters plant response rating",20%
same,pest or weed control at 500 g/ha,"lambsquarters; Chenopodium album, pre-emergence, 336 h, visual rating, 0 = no effect, 100 = complete control, read-out: Plant response rating, Lambsquarters",40%
same,pest or weed control at 1000 g/ha,ducksalad,70%
same,"Plant response rating (0 to 100 scale), Velvetleaf",velvetleaf; [2],20
same,pest or weed control at 125 g/ha,"velvetleaf; Abutilon theophrasti, post-emergence, 336 h, 125 g ai/ha, visual rating, scale 0 (no effect) to 100 (complete control), read-out: Velvetleaf plant response rating",40%
same,pest or weed control at 500 g/ha,"velvetleaf; Abutilon theophrasti, post-emergence, 336 h, postemergence, 500 g ai/ha, scale 0 to 100, 0 is no effect, 100 is complete control, read-out: Velvetleaf plant response rating",50%
same,"Plant response rating (0 to 100 scale), Surinam Grass",Surinam grass; [2],20
same,pest or weed control at 125 g/ha,"Surinam grass; Urochloa decumbens, post-emergence, 125 g ai/ha, visual rating, scale 0 (no effect) to 100 (complete control), read-out: Surinam Grass plant response rating",10%
same,pest or weed control at 500 g/ha,"Surinam grass; Urochloa decumbens, post-emergence, postemergence, scale 0 to 100, 0 is no effect, 100 is complete control, read-out: Surinam Grass plant response rating",30%
same,pest or weed control at 500 g/ha,"Surinam grass; Urochloa decumbens, pre-emergence, visual rating, 0 = no effect, 100 = complete control, read-out: Plant response rating, Surinam Grass",50%
same,"Plant response rating (0 to 100 scale), Crabgrass, Large",large crabgrass; [2],40
same,pest or weed control at 125 g/ha,"large crabgrass; Digitaria sanguinalis, post-emergence, 125 g ai/ha, visual rating, scale 0 (no effect) to 100 (complete control), read-out: Crabgrass, Large plant response rating",10%
same,pest or weed control at 500 g/ha,"large crabgrass; Digitaria sanguinalis, post-emergence, postemergence, scale 0 to 100, 0 is no effect, 100 is complete control, read-out: Crabgrass, Large plant response rating",20%
same,pest or weed control at 500 g/ha,"large crabgrass; Digitaria sanguinalis, pre-emergence, visual rating, 0 = no effect, 100 = complete control, read-out: Plant response rating, Crabgrass, Large",80%
same,"Plant response rating (0 to 100 scale), Pigweed",pigweed; [2],20
same,pest or weed control at 125 g/ha,"pigweed; Amaranthus retroflexus, post-emergence, 336 h, 125 g ai/ha, visual rating, scale 0 (no effect) to 100 (complete control), read-out: Pigweed plant response rating",30%
same,pest or weed control at 500 g/ha,"pigweed; Amaranthus retroflexus, post-emergence, 336 h, postemergence, scale 0 to 100, 0 is no effect, 100 is complete control, read-out: Pigweed plant response rating",40%
same,pest or weed control at 500 g/ha,"pigweed; Amaranthus retroflexus, pre-emergence, 336 h, visual rating, 0 = no effect, 100 = complete control, read-out: Plant response rating, Pigweed",50%
same,"Plant response rating (0 to 100 scale), Cocklebur",cocklebur; [2],0
same,pest or weed control at 125 g/ha,"cocklebur; Xanthium strumarium, post-emergence, 125 g ai/ha, visual rating, scale 0 (no effect) to 100 (complete control), read-out: Cocklebur plant response rating",10%
same,pest or weed control at 500 g/ha,"cocklebur; Xanthium strumarium, post-emergence, postemergence, scale 0 to 100, 0 is no effect, 100 is complete control, read-out: Cocklebur plant response rating",20%
same,pest or weed control at 500 g/ha,"cocklebur; Xanthium strumarium, pre-emergence, visual rating, 0 = no effect, 100 = complete control, read-out: Plant response rating, Cocklebur",0%
same,pest or weed control at 125 g/ha,wild oat; [3],40%
same,pest or weed control at 500 g/ha,wild oat; [4],60%
same,"Plant response rating (0 to 100 scale), Barnyardgrass",barnyardgrass; [2],10
same,pest or weed control at 125 g/ha,"barnyardgrass; Echinochloa crus-galli, post-emergence, 125 g ai/ha, visual rating, scale 0 (no effect) to 100 (complete control), read-out: Barnyardgrass plant response rating",0%
same,pest or weed control at 500 g/ha,"barnyardgrass; Echinochloa crus-galli, post-emergence, postemergence, scale 0 to 100, 0 is no effect, 100 is complete control, read-out: Barnyardgrass plant response rating",30%
same,pest or weed control at 500 g/ha,"barnyardgrass; Echinochloa crus-galli, pre-emergence, visual rating, 0 = no effect, 100 = complete control, read-out: Plant response rating, Barnyardgrass",40%
same,"Plant response rating (0 to 100 scale), Corn",corn; [2],10
same,plant injury at 125 g/ha,"corn; Zea mays, post-emergence, 125 g ai/ha, visual rating, scale 0 (no effect) to 100 (complete control), read-out: Corn plant response rating",10%
same,plant injury at 500 g/ha,"corn; Zea mays, post-emergence, postemergence, 500 g ai/ha, scale 0 to 100, 0 is no effect, 100 is complete control, read-out: Corn plant response rating",20%
same,"Corn plant response rating (crop injury, 0 = no effect, 100 = complete kill) at 500 g/ha","corn; Zea mays, pre-emergence, 500 g ai/ha, visual rating, 0 = no effect, 100 = complete control",40%
same,"Plant response rating (0 to 100 scale), Morningglory",morningglory; [2],0
same,pest or weed control at 125 g/ha,"morningglory; Ipomoea, post-emergence, 336 h, 125 g ai/ha, visual rating, scale 0 (no effect) to 100 (complete control), read-out: Morningglory plant response rating",0%
same,pest or weed control at 500 g/ha,"morningglory; Ipomoea, post-emergence, 336 h, postemergence, scale 0 to 100, 0 is no effect, 100 is complete control, read-out: Morningglory plant response rating",10%
same,pest or weed control at 500 g/ha,"morningglory; Ipomoea, pre-emergence, 336 h, visual rating, 0 = no effect, 100 = complete control, read-out: Plant response rating, Morningglory",10%
same,pest or weed control at 1000 g/ha,[1],90%
same,plant injury at 1000 g/ha,rice,50%
same,pest or weed control at 125 g/ha,blackgrass; [3],30%
same,pest or weed control at 500 g/ha,blackgrass; [4],50%
same,"Plant response rating (0 to 100 scale), Foxtail, Giant",giant foxtail; [2],50
same,pest or weed control at 125 g/ha,"giant foxtail; Setaria faberi, post-emergence, 336 h, 125 g ai/ha, visual rating, scale 0 (no effect) to 100 (complete control), read-out: Foxtail, Giant plant response rating",30%
same,pest or weed control at 500 g/ha,"giant foxtail; Setaria faberi, post-emergence, 336 h, postemergence, scale 0 to 100, 0 is no effect, 100 is complete control, read-out: Foxtail, Giant plant response rating",50%
same,pest or weed control at 500 g/ha,"giant foxtail; Setaria faberi, pre-emergence, 336 h, visual rating, 0 = no effect, 100 = complete control, read-out: Plant response rating, Foxtail, Giant",90%
